According to patent publication US9193720B2, “Pyridin-3-yl acetic acid derivatives as inhibitors of human immunodeficiency virus replication” (priority 2014, dated 2015):

The compounds below were run on NL-RLuc virus (assay: Inhibition of HIV Replication (NL-RLuc luciferase reporter virus in MT-2 cells)). Conditions: Human immunodeficiency virus 1, MT2, 120 h.
Assay type: cell-based
From the text: Inhibition of HIV Replication:
A recombinant NL-RLuc proviral clone was constructed in which a section of the nef gene from NL4-3 was replaced with the Renilla Luciferase gene. This virus is fully infectious and can undergo multiple cycles of replication in cell culture. In addition, the luciferous reporter provides a simple and easy method for quantitating the extent of virus growth and consequently, the antiviral activity of test compounds. The plasmid pNLRLuc contains the proviral NL-Rluc DNA cloned into pUC18 at the PvuII site. The NL-RLuc virus was prepared by transfection of 293T cells with the plasmid pNLRLuc. Transfections were performed using the LipofectAMINE PLUS kit from Invitrogen (Carlsbad, Calif.) according to the manufacturer and the virus generated was titered in MT-2 cells. For susceptibility analyses, the titrated virus was used to infect MT-2 cells in the presence of compound, and after 5 days of incubation, cells were processed and quantitated for virus growth by the amount of expressed luciferase. Assay media was RPMI 1640 supplemented with 10% heat inactivated fetal bovine serum (FBS), 100 units/ml penicillin G/100 units/ml streptomycin, 10 mM HEPES buffer pH 7.55 and 2 mM L-glutamine. The results from at least 2 experiments were used to calculate the EC50 values. Luciferase was quantitated using the Dual Luciferase kit from Promega (Madison, Wis.). Susceptibility of viruses to compounds was determined by incubation in the presence of serial dilutions of the compound. The 50% effective concentration (EC50) was calculated by using the exponential form of the median effect equation where (Fa)=1/[1+(ED50/drug conc.)^m] (Johnson V A, Byington R T. Infectivity Assay. In Techniques in HIV Research. ed. Aldovini A, Walker B D. 71-76. New York: Stockton Press. 1990).
Work on Cc1nc(C)c([C@H](OC(C)(C)C)C(=O)O)c(N2CCC(C)(C)CC2)c1-c1ccc(OC(C)Cc2ccc(F)cc2)cc1 (stereo partly drawn) [Example 22, (2S)-2-(tert-Butoxy)-2-(4-(4,4-dimethylpiperidin-1-yl)-5-(4-((1-(4-fluorophenyl)propan-2-yl)oxy)phenyl)-2,6-dimethylpyridin-3-yl)acetic acid] yielded an EC50 of 7 nM. For Cc1nc(C)c([C@H](OC(C)(C)C)C(=O)O)c(N2CCC(C)(C)CC2)c1-c1ccc(OCCc2ccc(F)cc2F)cc1 [Example 23, (S)-2-(tert-butoxy)-2-(5-(4-(2,4-difluorophenethoxy)phenyl)-4-(4,4-dimethylpiperidin-1-yl)-2,6-dimethylpyridin-3-yl)acetic acid], the EC50 was 5 nM. Cc1nc(C)c([C@H](OC(C)(C)C)C(=O)O)c(N2CCC(C)(C)CC2)c1-c1ccc(OCCc2ccc(F)c(F)c2)cc1 [Example 24, (S)-2-(tert-butoxy)-2-(5-(4-(3,4-difluorophenethoxy)phenyl)-4-(4,4-dimethylpiperidin-1-yl)-2,6-dimethylpyridin-3-yl)acetic acid] was tested, and the EC50 was 3 nM. Cc1nc(C)c([C@H](OC(C)(C)C)C(=O)O)c(N2CCC(C)(C)CC2)c1-c1ccc(OCCc2cc(F)ccc2F)cc1 [Example 25, (S)-2-(tert-butoxy)-2-(5-(4-(2,5-difluorophenethoxy)phenyl)-4-(4,4-dimethylpiperidin-1-yl)-2,6-dimethylpyridin-3-yl)acetic acid] showed an EC50 of 3 nM. Cc1nc(C)c([C@H](OC(C)(C)C)C(=O)O)c(N2CCC(C)(C)CC2)c1-c1ccc(OCCc2ccc(Cl)cc2)cc1 [Example 26, (S)-2-(tert-butoxy)-2-(5-(4-(4-chlorophenethoxy)phenyl)-4-(4,4-dimethylpiperidin-1-yl)-2,6-dimethylpyridin-3-yl)acetic acid] was tested, and the EC50 was 17 nM. Work on Cc1nc(C)c([C@H](OC(C)(C)C)C(=O)O)c(N2CCC(C)(C)CC2)c1-c1ccc(OCCc2ccc(Cl)c(F)c2)cc1 [Example 27, (S)-2-(tert-butoxy)-2-(5-(4-(4-chloro-3-fluorophenethoxy)phenyl)-4-(4,4-dimethylpiperidin-1-yl)-2,6-dimethylpyridin-3-yl)acetic acid] yielded an EC50 of 12 nM. Work on Cc1ccc(CCOc2ccc(-c3c(C)nc(C)c([C@H](OC(C)(C)C)C(=O)O)c3N3CCC(C)(C)CC3)cc2)cc1 [Example 28, (S)-2-(tert-butoxy)-2-(4-(4,4-dimethylpiperidin-1-yl)-2,6-dimethyl-5-(4-(4-methylphenethoxy)phenyl)pyridin-3-yl)acetic acid] yielded an EC50 of 19 nM. Cc1nc(C)c([C@H](OC(C)(C)C)C(=O)O)c(N2CCC(C)(C)CC2)c1-c1ccc(OCC(C)(C)c2ccc(Cl)cc2)cc1 [Example 29, (S)-2-(tert-butoxy)-2-(5-(4-(2-(4-chlorophenyl)-2-methylpropoxy)phenyl)-4-(4,4-dimethylpiperidin-1-yl)-2,6-dimethylpyridin-3-yl)acetic acid] showed an EC50 of 15 nM. For Cc1nc(C)c([C@H](OC(C)(C)C)C(=O)O)c(N2CCC(C)(C)CC2)c1-c1ccc(OCCc2ccc3ccccc3c2)cc1 [Example 30, (S)-2-(tert-butoxy)-2-(4-(4,4-dimethylpiperidin-1-yl)-2,6-dimethyl-5-(4-(2-(naphthalen-2-yl)ethoxy)phenyl)pyridin-3-yl)acetic acid], the EC50 was 6 nM. Cc1nc(C)c([C@H](OC(C)(C)C)C(=O)O)c(N2CCC(C)(C)CC2)c1-c1ccc(OCCc2ccc(OCc3ccccc3)cc2)cc1 [Example 31, (S)-2-(5-(4-(4-(benzyloxy)phenethoxy)phenyl)-4-(4,4-dimethylpiperidin-1-yl)-2,6-dimethylpyridin-3-yl)-2-(tert-butoxy)acetic acid] showed an EC50 of 47 nM. Cc1nc(C)c([C@H](OC(C)(C)C)C(=O)O)c(N2CCC(C)(C)CC2)c1-c1ccc(OCC(C)c2ccc(F)cc2)cc1 (stereo partly drawn) [Example 32, (2S)-2-(tert-butoxy)-2-(4-(4,4-dimethylpiperidin-1-yl)-5-(4-(2-(4-fluorophenyl)propoxy)phenyl)-2,6-dimethylpyridin-3-yl)acetic acid] showed an EC50 of 11 nM. Compound Cc1nc(C)c([C@H](OC(C)(C)C)C(=O)O)c(N2CCC(C)(C)CC2)c1-c1ccc(OCCc2ccccn2)cc1 [Example 33, (S)-2-(tert-butoxy)-2-(4-(4,4-dimethylpiperidin-1-yl)-2,6-dimethyl-5-(4-(2-(pyridin-2-yl)ethoxy)phenyl)pyridin-3-yl)acetic acid] has an EC50 of 1 nM. In the case of CO[C@H](COc1ccc(-c2c(C)nc(C)c([C@H](OC(C)(C)C)C(=O)O)c2N2CCC(C)(C)CC2)cc1)c1ccccc1 [Example 34, (S)-2-(tert-butoxy)-2-(4-(4,4-dimethylpiperidin-1-yl)-5-(4-((S)-2-methoxy-2-phenylethoxy)phenyl)-2,6-dimethylpyridin-3-yl)acetic acid], the EC50 is reported as 11 nM. With CO[C@@H](COc1ccc(-c2c(C)nc(C)c([C@H](OC(C)(C)C)C(=O)O)c2N2CCC(C)(C)CC2)cc1)c1ccccc1 [Example 35, (S)-2-(tert-butoxy)-2-(4-(4,4-dimethylpiperidin-1-yl)-5-(4-((R)-2-methoxy-2-phenylethoxy)phenyl)-2,6-dimethylpyridin-3-yl)acetic acid] the EC50 was 13 nM. In the case of COc1cccc(CCOc2ccc(-c3c(C)nc(C)c([C@H](OC(C)(C)C)C(=O)O)c3N3CCC(C)(C)CC3)cc2)c1 [Example 36, (S)-2-(tert-butoxy)-2-(4-(4,4-dimethylpiperidin-1-yl)-5-(4-(3-methoxyphenethoxy)phenyl)-2,6-dimethylpyridin-3-yl)acetic acid], the EC50 is reported as 2 nM. For Cc1nc(C)c([C@H](OC(C)(C)C)C(=O)O)c(N2CCC(C)(C)CC2)c1-c1ccc(OCCc2ccncc2)cc1 [Example 37, (S)-2-(tert-butoxy)-2-(4-(4,4-dimethylpiperidin-1-yl)-2,6-dimethyl-5-(4-(2-(pyridin-4-yl)ethoxy)phenyl)pyridin-3-yl)acetic acid], the EC50 was 1 nM. Compound Cc1nc(C)c([C@H](OC(C)(C)C)C(=O)O)c(N2CCC(C)(C)CC2)c1-c1ccc(OCCc2cccc3ccccc23)cc1 [Example 38, (S)-2-(tert-butoxy)-2-(4-(4,4-dimethylpiperidin-1-yl)-2,6-dimethyl-5-(4-(2-(naphthalen-1-yl)ethoxy)phenyl)pyridin-3-yl)acetic acid] has an EC50 of 6 nM. In the case of Cc1nc(C)c([C@H](OC(C)(C)C)C(=O)O)c(N2CCC(C)(C)CC2)c1-c1ccc(OCCc2ccccc2)cc1 [Example 39, (S)-2-(tert-butoxy)-2-(4-(4,4-dimethylpiperidin-1-yl)-2,6-dimethyl-5-(4-phenethoxyphenyl)pyridin-3-yl)acetic acid], the EC50 is reported as 2 nM. Work on Cc1ncsc1CCOc1ccc(-c2c(C)nc(C)c([C@H](OC(C)(C)C)C(=O)O)c2N2CCC(C)(C)CC2)cc1 [Example 40, (S)-2-(tert-butoxy)-2-(4-(4,4-dimethylpiperidin-1-yl)-2,6-dimethyl-5-(4-(2-(4-methylthiazol-5-yl)ethoxy)phenyl)pyridin-3-yl)acetic acid] yielded an EC50 of 1 nM. For Cc1nc(C)c([C@H](OC(C)(C)C)C(=O)O)c(N2CCC(C)(C)CC2)c1-c1ccc(OCCc2cccnc2)cc1 [Example 41, (S)-2-(tert-butoxy)-2-(4-(4,4-dimethylpiperidin-1-yl)-2,6-dimethyl-5-(4-(2-(pyridin-3-yl)ethoxy)phenyl)pyridin-3-yl)acetic acid], the EC50 was 1 nM. Cc1nc(CCOc2ccc(-c3c(C)nc(C)c([C@H](OC(C)(C)C)C(=O)O)c3N3CCC(C)(C)CC3)cc2)cs1 [Example 42, (S)-2-(tert-butoxy)-2-(4-(4,4-dimethylpiperidin-1-yl)-2,6-dimethyl-5-(4-(2-(2-methylthiazol-4-yl)ethoxy)phenyl)pyridin-3-yl)acetic acid] showed an EC50 of 4 nM. Compound Cc1nc(C)c([C@H](OC(C)(C)C)C(=O)O)c(N2CCC(C)(C)CC2)c1-c1ccc(OCc2cncs2)cc1 [Example 43, (S)-2-(tert-butoxy)-2-(4-(4,4-dimethylpiperidin-1-yl)-2,6-dimethyl-5-(4-(thiazol-5-ylmethoxy)phenyl)pyridin-3-yl)acetic acid] has an EC50 of 14 nM. With Cc1nc(C)c(COc2ccc(-c3c(C)nc(C)c([C@H](OC(C)(C)C)C(=O)O)c3N3CCC(C)(C)CC3)cc2)s1 [Example 44, (S)-2-(tert-butoxy)-2-(4-(4,4-dimethylpiperidin-1-yl)-5-(4-((2,4-dimethylthiazol-5-yl)methoxy)phenyl)-2,6-dimethylpyridin-3-yl)acetic acid] the EC50 was 12 nM. Cc1nc(-c2ccccc2)sc1COc1ccc(-c2c(C)nc(C)c([C@H](OC(C)(C)C)C(=O)O)c2N2CCC(C)(C)CC2)cc1 [Example 45, (S)-2-(tert-butoxy)-2-(4-(4,4-dimethylpiperidin-1-yl)-2,6-dimethyl-5-(4-((4-methyl-2-phenylthiazol-5-yl)methoxy)phenyl)pyridin-3-yl)acetic acid] showed an EC50 of 29 nM. Work on COc1cccc(CCOc2ccc(-c3c(C)nc(C)c([C@H](OC(C)(C)C)C(=O)O)c3N3CCC(C)(C)CC3)cc2OCCc2cccc(OC)c2)c1 [Example 46, (S)-2-(5-(3,4-bis(3-methoxyphenethoxy)phenyl)-4-(4,4-dimethylpiperidin-1-yl)-2,6-dimethylpyridin-3-yl)-2-(tert-butoxy)acetic acid] yielded an EC50 of 14 nM.
